Results from patent publication US11952582B2, “Herbicide-resistance gene and application thereof in plant breeding” (priority 2017, dated 2024).
“Also recorded” adds a separate entry of the source.

What was measured:
[1] = tested on: Arabidopsis WT (Col0), OE At, OE Pa, OE M3 lines; experiment: Arabidopsis seed germination test on herbicide-containing 1/2 MS medium; format: in vivo, Arabidopsis thaliana; conditions: 2 weeks
Experimental: In order to evaluate the resistance of different HPPD overexpression lines to herbicides, Arabidopsis seed germination tests were performed on media containing different concentrations of herbicides. T3 generation Arabidopsis seeds and Co10 (WT) seeds were performed steam surface sterilization (concentrated HCl: NaClO=1:5, v/v) for 3 h. Seeds of OE At (OE At #1, OE At #2), OE Pa (OE Pa #1, OE Pa #2), OE M3 (OE M3 #1, OE M3 #2) and Co10 (WT) were dibbled together in ^1/2 MS medium (0.5 x MS salt, 1% sucrose and 0.8% agar) in a 24-well plate, and the medium contained different concentrations (0, 31.25, 62.5, 125, 500 and 2000 nM) of mesotrione (Sigma Aldrich, USA) and sulcotrione (Sigma Aldrich, USA). Then, the plate dibbled seeds was placed in the dark at 4° C. for 3 d, and then transferred to a growth chamber at 22° C. (16 h light/8 h dark) for 2 weeks. Three biological replicates were performed per treatment per species. After 2 weeks, the test results were photographed.

[2] = tested on: Arabidopsis WT, OE At, OE Pa, OE M3 seedlings; experiment: NBT and DAB staining of Arabidopsis seedlings (superoxide, hydrogen peroxide); format: in vivo, Arabidopsis thaliana; conditions: 100 nM, 72 h
Experimental: 2 week-old Arabidopsis seedlings were cultured continuously in ½ MS mediums with 100 nM mesotrione and without mesotrione for 72 h, and then transferred to 3.5 mg/mL NBT staining solution (prepared with potassium phosphate buffer containing 10 mM NaN3) and soaked in vacuum for 2 min, and then placed on a shaker overnight. The NBT-stained plants were placed in a mixed solution of acetic acid:glycerol:ethanol=1:1:3 (v/v/v) and destained at 100° C. for 5 min, then reserved in a mixed solution of glycerol:ethanol=1:4 (v/v), and was used to take photos to record the test results.
2 week-old Arabidopsis seedlings were cultured continuously in ½ MS mediums with 100 nM mesotrione and without mesotrione for 72 h, and then transferred to DAB staining solution, and soaked in vacuum for 2 min, and then placed on a shaker for 7-8 hours. The DAB-stained plants were placed in a mixed solution of acetic acid:glycerol:ethanol=1:1:3 (v/v/v) and destained at 100° C. for 5 min, then reserved in a mixed solution of glycerol: ethanol=1:4 (v/v), and was used to take photos to record the test results.
2 week-old T3 generation Arabidopsis seedlings of WT, OE At, OE Pa and OE M3 were transfered to different control (½ MS medium) and treatment medium (½ MS medium containing 100 nM mesotrione) for 72 h, and then stained with NBT and DAB to detect the accumulation of reactive oxygen species.

PaHPPD-SDM = PaHPPD-SDM (Pseudomonas aeruginosa, UniProt Q9I576, A156V/E349K/R282S); conditions: higher doses in the range 0-60 of herbicide
PaHPPD-SDM, sequence (Q9I576 whole entry A156V/R282S/E349K): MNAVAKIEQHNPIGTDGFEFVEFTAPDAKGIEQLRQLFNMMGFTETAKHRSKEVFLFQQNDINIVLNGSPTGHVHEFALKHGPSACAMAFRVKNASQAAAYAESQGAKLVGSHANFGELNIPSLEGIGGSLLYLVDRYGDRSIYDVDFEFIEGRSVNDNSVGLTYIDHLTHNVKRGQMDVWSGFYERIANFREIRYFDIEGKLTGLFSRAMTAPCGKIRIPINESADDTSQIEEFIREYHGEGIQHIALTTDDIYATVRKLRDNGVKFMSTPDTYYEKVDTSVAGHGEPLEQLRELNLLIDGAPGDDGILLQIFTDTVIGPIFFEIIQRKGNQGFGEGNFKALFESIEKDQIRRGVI
From the text: Specifically, the presence of tyrosine aminotransferase in E. coli DH5a can catalyze the production of p-hydroxyphenylpyruvate (4-HPP) from tyrosine, which is used as a substrate for HPPD to produce homogentisic acid (HGA). After further oxidation and polymerization, a brown substance is produced. The addition of HPPD inhibitors will inhibit this reaction, thereby reducing the production of pigment. Therefore, the gradation of pigment can be used as an inhibition index of HPPD activity. […] Through heterologous expression of HPPD mutant genes from different species in E. coli DH5α, the resistance characteristics of E. coli DH5α-mutated gene to triketone herbicides were analyzed by detecting the absorption value of pigment at 405 nm (FIGS. 2-6, 8 and 9).
The PaHPPD mutants obtained by random mutation was cloned into E. coli cells together with wild-type PaHPPD and AtHPPD for comparation and screening.
The bacteria solution shaking cultured overnight at 37° C. was centrifuged, and 200 μL of supernatant was transferred to a sterile 96-well plate (microplate with high throughput characteristics) using a 200 μL pipette on an ultra-clean workbench. The pigment content was measured with a microtiter plate reader at a wavelength of 405 nm (OD405 nm), and the HPPD activity was evaluated according to the size of the OD value.
Then the obtained PaHPPD-SDM mutant was compared with its parental mutants (PaHPPD-M3, PaHPPD-DS18, and PaHPPD-DS73) to understand their ability of brown pigmentation in the presence of triketone herbicides at different doses (0-60 μM). The calculation formula of HPPD activity (%) is as follows: HPPD activity(%)=(Am/Ac)×100
Wherein Am refers to the average value of the absorbance at a specific herbicide dose, and Ac refers to the average value of the absorbance without the herbicide.

[3] = tested on: WT and T0 OE SDM rice seedlings; experiment: Rice resistance to herbicide at pot level (spray); format: in vivo; conditions: 200 μM spray, 21 d (3 weeks)
Experimental: Transgenic T0 generation OE SDM and WT rice seedlings were planted in pots containing soil and placed in an artificial climate room (30° C. 16 h light/28° C. 8 h dark) for growth. 3 weeks later, when the rice seedlings reached a height of 15-20 cm, 200 μM mesotrione (prepared with 0.1% Tween-20) and 0.1% Tween-20 were sprayed to OE SDM and WT rice seedlings, respectively. Then, the phenotype should be observed every week. The oxidative stress index was measured 1 week after the treatment, the chlorophyll content of the leaves was measured 2 weeks after the treatment, and the experimental result was photographed 3 weeks after the treatment.

[4] = tested on: Arabidopsis WT, OE At, OE Pa, OE M3 seedlings; experiment: Herbicide resistance after Arabidopsis germination (seedlings transferred to herbicide medium); format: in vivo, Arabidopsis thaliana
Experimental: In order to further confirm the correctness of the results obtained in the germination test, an analysis experiment on herbicide resistance after Arabidopsis germination was conducted. Arabidopsis seedlings germinated by OE At, OE Pa, OE M3 and WT for 7 days were transferred to ½ MS medium containing different concentrations (0, 100, 250, 500, and 1000 nM) of mesotrione and grown for 1 week. 5 seedlings were treated per genotype with 3 biological replicates. After 1 week, the effect of the herbicide treatment (i.e., albino) was photographed.

[5] = tested on: Arabidopsis WT, OE At, OE Pa, OE M3 plants; experiment: Total chlorophyll and carotenoid content of Arabidopsis rosette leaves; format: in vivo, Arabidopsis thaliana
Experimental: The leaves (rosette leaves) of 2 week-old plants grown in ^1/2 MS medium containing different concentrations (0, 100, 250, 500 and 1000 nM) of mesotrione were collected, including leaves of OE At, OE Pa, OE M3 and WT. The total chlorophyll and carotenoid were extracted and the content thereof was detected by referring to the method of Lichtenthaler HK (1987). All experiments were repeated biologically 3 times, and the average value was taken.

[6] = tested on: WT and T0 OE SDM rice seedlings; experiment: Total chlorophyll content in rice leaves; format: in vivo; conditions: 200 μM
Experimental: Referring to the method of Lichtenthaler HK (1987), chlorophyll was extracted from the leaves of wild-type and T0 generation OE SDM rice seedlings which were sprayed with 200 μM mesotrione (prepared with 0.1% Tween-20) and sprayed with control 0.1% Tween-20 after 2 weeks and its content was determined. All experiments were repeated biologically 3 times, and the average value was taken.

[7] = tested on: Arabidopsis WT, OE At, OE Pa, OE M3 potted plants; experiment: Herbicide resistance of Arabidopsis at pot level (spray); format: in vivo, Arabidopsis thaliana
Experimental: 2 week-old Arabidopsis seedlings of WT, OE At, OE Pa, and OE M3 were transplanted into soil-filled pots (12 seedlings per pot) and growth in a phytotron (22° C., 14 h light/10 h dark, 120 μmol m^−2 s^−1 light intensity) for 4 weeks. Then, 5 μM mesotrione solution (prepared with 0.05% Tween-20) were sprayed twice with a treatment interval of 3 days, and compared with the control treatment (0.05% Tween-20 without herbicide). The spray treatment was biologically repeated 3 times. Two weeks after the first herbicide spray, the test results were photographed.

SMILES: CS(=O)(=O)c1ccc(C(=O)C2C(=O)CCCC2=O)c([N+](=O)[O-])c1 [mesotrione]
- concentration giving albino death / severely inhibited growth ([1]; OE At (two lines) and WT): 31.25 nM
- concentration at which seedlings grow normally ([1]; OE Pa (two lines), T3 seeds): 62.5 nM
- accumulation of superoxide and hydrogen peroxide of OE M3 compared with WT, OE At and OE Pa [2]: significantly less; also recorded: significantly reduced
- resistance by HPPD activity (%) compared with WT, PaHPPD-M3, PaHPPD-DS18 and PaHPPD-DS73 (PaHPPD-SDM): improved the resistance
- phenotype of leaves/plants ([3]; OE SDM rice line (T0)): grew well; also recorded: very small visible signs of damage
- phenotype of leaves/plants ([3]; WT rice): albino and the growth was inhibited until death; also recorded: withered and died
- cotyledon phenotype ([4]; OE At and OE Pa, 250 nM, 1 week): albino
- concentration at which seedlings grew well (maximum tolerance concentration of seedlings) ([4]; OE M3, 7-day seedlings, 1 week on 1/2 MS medium): 250 nM
- concentration at which cotyledons were albino ([4]; WT, 7-day seedlings, 1 week on 1/2 MS medium): 100 nM
- total chlorophyll and carotenoid content of leaves with the increase of herbicide concentration ([5]; WT, OE At, OE Pa and OE M3, 0-1000 nM in 1/2 MS medium): decreased
- total chlorophyll and carotenoid content of OE M3 compared with WT, OE At and OE Pa ([5]; same herbicide concentration): significantly higher
- chlorophyll content of leaves after treatment ([6]; OE PaHPPD-SDM rice): did not decrease significantly
- total chlorophyll content in leaves compared with treated OE SDM rice ([6]; WT rice, 2 weeks): greatly reduced
- maximum tolerance concentration under potted conditions ([7]; Arabidopsis overexpressing PaHPPD-M3, sprayed on fully expanded leaves): 5 µM
- phenotype ([7]; OE M3 line, 5 μM sprayed twice, 2 weeks after first spray): grows well
- phenotype of new leaves of seedlings ([7]; WT, OE At and OE Pa lines, 5 μM sprayed twice, 2 weeks after first spray): completely albino
